From US7129218B2, “Use of rhamnolipids in wound healing, treatment and prevention of gum disease and periodontal regeneration” (Paradigm Biomedical, Inc., priority 1999, dated 2006) come the findings set out here.

Structures are written as SMILES.

The data set relates to neonatal human fibroblast cells. The experiment in a line: Caspase detection in neonatal human fibroblast cells in FM, fluorescence spectroscopy. The following applies: fibroblasts in FM. Type of data set: cell-based. An excerpt:
The procedure for caspase detection in neonatal human fibroblast cells in fibroblast growth medium FM* treated with BAC-3 using fluorescence spectroscopy.
Note: CaspaTag Fluorescein Caspase Activity Kit (Intergen Company) was used to detect active caspase enzymes with fluorescent spectroscopy. All solutions, except cell medium and PBS, were included with the kit.
12 vials of neonatal human fibroblasts, NHF97-001 passage #3 (prepared as described in section 2.1.a), were retrieved from a liquid N2 chamber. Closed vials were quickly defrosted in a small amount of 37° C., 75% ethanol. […]
Di-rhamnolipid BAC-3 was weighed on the precision balance (Mettler AC100) and dissolved in FM medium to make an aqueous 1 mg/ml di-rhamnolipid BAC-3 stock solution. […] The remaining 9 plates were used as controls: 3 plates for positive apoptosis control (apoptosis induction by UVB+antibody), 3 plates for BAC-3 untreated control and 3 plates for fluorescence control (FAM-VAD-FMK unlabelled cells). […]
On day 6, treatment with BAC-3 was completed and cells were trypsinized and collected into 50 ml centrifuge tubes. Cells were counted using a hemacytometer and a trypan blue exclusion test and densities were adjusted to 1.0×10^6 cells per ml of FM medium. […]

`CCCCCCCC(CC(=O)O)OC(=O)CC(CCCCCCC)OC1OC(C)C(O)C(O)C1OC1OC(C)C(O)C(O)C1O` [BAC-3, (α-L-rhamnopyranosyl-(1,2)-α-L-rhamnopyranosyl)-3-hyroxydecanoyl-3-hydroxydecanoic acid]: for the setting “6 days, tested 100, 50, 10 and 1 μg/ml”, the “optimal concentration for inducing apoptosis (caspase activity peak)” value came to 50 µg/mL. Besides, the “mechanism of cell death at higher concentrations” value (higher concentrations of BAC-3 (detergent effect)) is “cell necrosis”.
